This note sets out measurements from US20240336608A1, “IL4I1 INHIBITORS AND METHODS OF USE” (Merck Sharp & Dohme LLC, priority 2023, published 2024).

In the assay the target is T1, recombinant IL4I1 (Homo sapiens, UniProt Q96RQ9).
T1 construct: purchased R&D Systems 5684-AO-020
T1 sequence (Q96RQ9 22-567): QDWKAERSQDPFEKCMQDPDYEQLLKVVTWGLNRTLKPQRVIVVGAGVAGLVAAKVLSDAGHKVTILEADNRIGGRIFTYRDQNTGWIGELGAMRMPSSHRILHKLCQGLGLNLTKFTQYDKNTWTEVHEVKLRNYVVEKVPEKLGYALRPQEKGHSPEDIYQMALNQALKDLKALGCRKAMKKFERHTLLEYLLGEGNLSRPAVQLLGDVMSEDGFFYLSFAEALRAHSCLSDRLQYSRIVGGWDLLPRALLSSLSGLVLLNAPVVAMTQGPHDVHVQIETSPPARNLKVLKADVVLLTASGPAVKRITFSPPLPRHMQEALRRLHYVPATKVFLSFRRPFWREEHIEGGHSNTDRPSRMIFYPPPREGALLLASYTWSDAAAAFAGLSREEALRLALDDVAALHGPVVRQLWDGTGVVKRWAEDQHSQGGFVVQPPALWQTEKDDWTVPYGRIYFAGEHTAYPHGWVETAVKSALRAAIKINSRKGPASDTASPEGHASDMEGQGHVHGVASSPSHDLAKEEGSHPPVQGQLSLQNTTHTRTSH
Kind of assay: IL4I1 Enzymatic Assay (Amplex Red/HRP coupled detection of H2O2, fluorescence). Particulars: 1 nM recombinant IL4I1; four-hour pre-incubation with compound; 1 mM each Phe, Tyr, Trp; ten-point titration. The class given is biochemical. Put shortly: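 Recombinant IL4I1 (1 nM final) pre-incubated 4 h at ambient temperature with compound (0.5% DMSO) in 50 mM Hepes pH 7.0, 0.005% Tween20; reaction started with 1 mM each Phe/Tyr/Trp plus excess Amplex Red/HRP, run 120 min. H2O2 read as resorufin fluorescence; EC50 from 10-point four-parameter fit.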
Take `C[C@@H](O)[C@H](CO)n1cc(C(=O)NCc2nnc(-c3ccccc3)s2)nn1` [Example 187, 1-((2S,3R)-1,3-dihydroxybutan-2-yl)-N-((5-phenyl-1,3,4-thiadiazol-2-yl)methyl)-1H-1,2,3-triazole-4-carboxamide]: the EC50 is 196 nM.

Consider `O=C(NCc1nnc(-c2ccccc2)s1)c1cn(C2CS(=O)(=O)CC2O)nn1` (centres unmarked) [Example 188, 1-(4-hydroxy-1,1-dioxidotetrahydrothiophen-3-yl)-N-((5-phenyl-1,3,4-thiadiazol-2-yl)methyl)-1H-1,2,3-triazole-4-carboxamide], for which the EC50 turned out to be 155 nM.

Turning to `O=C(NCc1nnc(-c2ccccc2)s1)c1cn([C@H]2COC[C@@H]2O)nn1` [Example 189, 1-((3S,4R)-4-hydroxytetrahydrofuran-3-yl)-N-((5-phenyl-1,3,4-thiadiazol-2-yl)methyl)-1H-1,2,3-triazole-4-carboxamide], the EC50 is 107 nM.

Turning to `O=C(NCc1nnc(-c2ccccc2)s1)c1cn([C@@H]2C[C@@H](O)[C@@H](O)C2)nn1` [Example 190, 1-((1s,3R,4S)-3,4-dihydroxycyclopentyl)-N-((5-phenyl-1,3,4-thiadiazol-2-yl)methyl)-1H-1,2,3-triazole-4-carboxamide], the EC50 worked out at 499 nM.

As to `O=C(NCc1nnc(-c2ccccc2)s1)c1cn(CC(O)CO)nn1` (centres unmarked) [Example 191, 1-(2,3-dihydroxypropyl)-N-((5-phenyl-1,3,4-thiadiazol-2-yl)methyl)-1H-1,2,3-triazole-4-carboxamide], the EC50 stood at 12 nM.

For the molecule `O=C1COC(Cn2cc(C(=O)NCc3nnc(-c4ccccc4)s3)nn2)CN1` (centres unmarked) [Example 192, 1-((5-oxomorpholin-2-yl)methyl)-N-((5-phenyl-1,3,4-thiadiazol-2-yl)methyl)-1H-1,2,3-triazole-4-carboxamide], the EC50 is 264 nM.

In the case of `CN(C)C(=O)CCn1cc(C(=O)NCc2nnc(-c3ccccc3)s2)nn1` [Example 193, 1-(3-(dimethylamino)-3-oxopropyl)-N-((5-phenyl-1,3,4-thiadiazol-2-yl)methyl)-1H-1,2,3-triazole-4-carboxamide], the EC50 stood at 958 nM.

For `O=C(NCc1nnc(-c2ccccc2)s1)c1cn(CCCO)nn1` [Example 194, 1-(3-hydroxypropyl)-N-((5-phenyl-1,3,4-thiadiazol-2-yl)methyl)-1H-1,2,3-triazole-4-carboxamide], the EC50 is 7 nM.

As for `CCC(CO)(CO)n1cc(C(=O)NCc2nnc(-c3ccccc3)s2)nn1` [Example 195, 1-(1-hydroxy-2-(hydroxymethyl)butan-2-yl)-N-((5-phenyl-1,3,4-thiadiazol-2-yl)methyl)-1H-1,2,3-triazole-4-carboxamide], the EC50 is 532 nM.

For the molecule `O=C(NCc1nnc(-c2ccccc2)s1)c1cn(C2CCC(O)C2)nn1` (centres unmarked) [Example 196, 1-(3-hydroxycyclopentyl)-N-((5-phenyl-1,3,4-thiadiazol-2-yl)methyl)-1H-1,2,3-triazole-4-carboxamide], the EC50 was found to be 11 nM.

`N#CC1(n2cc(C(=O)NCc3nnc(-c4ccccc4)s3)nn2)CCOC1` (centres unmarked) [Example 197, 1-(3-cyanotetrahydrofuran-3-yl)-N-((5-phenyl-1,3,4-thiadiazol-2-yl)methyl)-1H-1,2,3-triazole-4-carboxamide]: the EC50 turned out to be 28 nM.

In the case of `O=C(NCc1nnc(-c2ccccc2)s1)c1cn([C@@H]2COC[C@@H]2F)nn1` [Example 198, 1-((3R,4R)-4-fluorotetrahydrofuran-3-yl)-N-((5-phenyl-1,3,4-thiadiazol-2-yl)methyl)-1H-1,2,3-triazole-4-carboxamide], the EC50 is 17 nM.

In the case of `O=C(NCc1nnc(-c2ccccc2)s1)c1cn([C@H]2COC[C@@H]2F)nn1` [Example 199, 1-((3S,4R)-4-fluorotetrahydrofuran-3-yl)-N-((5-phenyl-1,3,4-thiadiazol-2-yl)methyl)-1H-1,2,3-triazole-4-carboxamide], the EC50 was found to be 140 nM.

For `O=C(NCc1nnc(-c2ccccc2)s1)c1cn(C2C3COCC32)nn1` (centres unmarked) [Example 200, 1-(3-oxabicyclo[3.1.0]hexan-6-yl)-N-((5-phenyl-1,3,4-thiadiazol-2-yl)methyl)-1H-1,2,3-triazole-4-carboxamide], the EC50 was 537 nM.

Regarding `CC(C)(O)Cn1cc(C(=O)NCc2nnc(-c3ccccc3)s2)nn1` [Example 201, 1-(2-hydroxy-2-methylpropyl)-N-((5-phenyl-1,3,4-thiadiazol-2-yl)methyl)-1H-1,2,3-triazole-4-carboxamide], the EC50 was found to be 226 nM.

Turning to `CC(n1cc(C(=O)NCc2nnc(-c3ccccc3)s2)nn1)C(F)(F)F` (centres unmarked) [Example 203, N-((5-phenyl-1,3,4-thiadiazol-2-yl)methyl)-1-(1,1,1-trifluoropropan-2-yl)-1H-1,2,3-triazole-4-carboxamide], the EC50 was determined as 31 nM.

For `CC([C@H]1CCCO1)n1cc(C(=O)NCc2nnc(-c3ccccc3)s2)nn1` (stereo partly drawn) [Example 204, N-((5-phenyl-1,3,4-thiadiazol-2-yl)methyl)-1-(1-((R)-tetrahydrofuran-2-yl)ethyl)-1H-1,2,3-triazole-4-carboxamide], the EC50 is 74 nM.

Turning to `C[C@H]1OCC[C@H]1Cn1cc(C(=O)NCc2nnc(-c3ccccc3)s2)nn1` [Example 205, 1-(((2R,3S)-2-methyltetrahydrofuran-3-yl)methyl)-N-((5-phenyl-1,3,4-thiadiazol-2-yl)methyl)-1H-1,2,3-triazole-4-carboxamide], the EC50 was determined as 33 nM.

Regarding `O=C(NCc1nnc(-c2ccccc2)s1)c1cn(C2CCCC(O)C2)nn1` (centres unmarked) [Example 206, 1-(3-hydroxycyclohexyl)-N-((5-phenyl-1,3,4-thiadiazol-2-yl)methyl)-1H-1,2,3-triazole-4-carboxamide], the EC50 was 226 nM.

Consider `O=C(NCc1nnc(-c2ccccc2)s1)c1cn(CCC2CCCO2)nn1` (centres unmarked) [Example 207, N-((5-phenyl-1,3,4-thiadiazol-2-yl)methyl)-1-(2-(tetrahydrofuran-2-yl)ethyl)-1H-1,2,3-triazole-4-carboxamide], for which the EC50 was 327 nM.

Regarding `CC1(n2cc(C(=O)NCc3nnc(-c4ccccc4)s3)nn2)CC(F)(F)C1` [Example 208, 1-(3,3-difluoro-1-methylcyclobutyl)-N-((5-phenyl-1,3,4-thiadiazol-2-yl)methyl)-1H-1,2,3-triazole-4-carboxamide], the EC50 turned out to be 711 nM.

As to `O=C(NCc1nnc(-c2ccccc2)s1)c1cn([C@H]2CCC[C@@H]2O)nn1` [Example 209, 1-((1S,2S)-2-hydroxycyclopentyl)-N-((5-phenyl-1,3,4-thiadiazol-2-yl)methyl)-1H-1,2,3-triazole-4-carboxamide], the EC50 is 146 nM.

Regarding `O=C(NCc1nnc(-c2ccccc2)s1)c1cn([C@@H]2CCC[C@H]2O)nn1` [Example 210, 1-((1R,2R)-2-hydroxycyclopentyl)-N-((5-phenyl-1,3,4-thiadiazol-2-yl)methyl)-1H-1,2,3-triazole-4-carboxamide], the EC50 is 109 nM.

Take `CC(F)(F)Cn1cc(C(=O)NCc2nnc(-c3ccccc3)s2)nn1` [Example 211, 1-(2,2-difluoropropyl)-N-((5-phenyl-1,3,4-thiadiazol-2-yl)methyl)-1H-1,2,3-triazole-4-carboxamide]: the EC50 stood at 14 nM.

Turning to `Cc1nc(C)c(-n2cc(C(=O)NCc3nnc(-c4ccccc4)s3)nn2)s1` [Example 212, 1-(2,4-dimethylthiazol-5-yl)-N-((5-phenyl-1,3,4-thiadiazol-2-yl)methyl)-1H-1,2,3-triazole-4-carboxamide], the EC50 was 882 nM.

On to `O=C(NCc1nnc(-c2ccccc2)s1)c1cn(CC(F)F)nn1` [Example 213], for which the EC50 was found to be 3 nM.

Consider `O=C(NCc1nnc(-c2ccccc2)s1)c1cc(C(F)(F)F)no1` [Example 214, N-[(5-phenyl-1,3,4-thiadiazol-2-yl)methyl]-3-(trifluoromethyl)-1,2-oxazole-5-carboxamide], for which the EC50 turned out to be 251 nM.

Consider `O=C(NCc1nnc(-c2ccccc2)s1)c1noc2ccccc12` [Example 215, N-[(5-phenyl-1,3,4-thiadiazol-2-yl)methyl]-1,2-benzoxazole-3-carboxamide], for which the half-maximal effective concentration (EC50) was 127 nM.

Regarding `Cc1ccc(-n2cc(C(=O)NCc3ccc(-n4nccn4)cn3)nn2)c(C)n1` [Example 216, 1-(2,6-dimethylpyridin-3-yl)-N-{[5-(2H-1,2,3-triazol-2-yl)pyridin-2-yl]methyl}-1H-1,2,3-triazole-4-carboxamide], the EC50 was determined as 326 nM.

Turning to `Cn1cc(C(=O)NCc2cc(-c3ccc(Cl)cc3)no2)nn1` [Example 217, N-{[3-(4-chlorophenyl)-1,2-oxazol-5-yl]methyl}-1-methyl-1H-1,2,3-triazole-4-carboxamide], the concentration giving a half-maximal response (EC50) was 648 nM.

`Cn1cc(C(=O)NCc2cc(-c3ccccc3)no2)nn1` [Example 218, 1-methyl-N-[(3-phenyl-1,2-oxazol-5-yl)methyl]-1H-1,2,3-triazole-4-carboxamide]: the EC50 is 184 nM.

`Cn1cc(C(=O)NCc2nnc(-c3ccc(F)cc3)s2)nn1` [Example 219, N-{[5-(4-fluorophenyl)-1,3,4-thiadiazol-2-yl]methyl}-1-methyl-1H-1,2,3-triazole-4-carboxamide]: the EC50 worked out at 154 nM.
